Source: patent US4940713A, “Substituted glutamic acids” (Burroughs Wellcome Co., priority 1988, dated 1990)
Like-named read-outs stand apart in the source and are kept apart here.

Assays:
mouse L cells [1] = assay: Reversal of Cytotoxic Activity on mouse L cells
Streptococcus faecium = assay: Activity against Streptococcus faecium; type: cell-based; details: in words
Lactobacillus casei = assay: Activity against Lactobacillus casei; type: cell-based; details: in words
[2] = tested on: MCF-7 breast adenocarcinoma; assay: Cytotoxicity Assay, MCF-7 (MTT dye reduction assay); type: cell-based; details: 72 hours
Protocol: Cells and Medium: MCF-7 breast adenocarcinoma, obtained from the American Type Culture Collection (ATCC) is grown in RPMI 1640 medium supplemented with 10 nM calcium leucovorin instead of folic acid as the folate source, 10% dialyzed fetal calf serum, penicillin, streptomycin and sodium pyruvate (110 μg/ml).
Cytotoxicity Assay: Cells are seeded into 96 well plates using a Perkin Elmer Pro/pette. MCF-7 cells are seeded at 15,000 cells per well in 150 μl of medium. Prior to the addition of drugs, cultures were incubated for 24 hours at 37°. Compounds were added at 2× concentration in 150 μl of medium and each concentration was assayed in triplicate. Cultures were incubated for 72 hours in a 37° humidified incubator at 5% CO2. Inhibition of cell growth was measured using the MTT dye reduction assay.
MTT Dye Reduction Assay: Cell dilutions for a standard curve were prepared from a 72 hour log-phase culture. Serial dilutions were seeded in triplicate in 96 well plates and incubated at 37° for 1 hour. MTT (3-(4,5-dimethylthiazol-2-yl)-2,5-diphenyltetrazolium bromide) was dissolved in phosphate buffered saline at 5 mg/ml and sonicated for 30 seconds. Using the Perkin Elmer Pro/pette, 200 μl of medium was removed and 100 μl of MTT added to the wells of the standard curve and test plates. Suspension cultures were spun for 5 minutes at 1000 rpm before removing medium from the wells. Plates were incubated for 1 hour at 37° on a platform shaker. Following this incubation, 100 μl of medium was removed from the wells and 100 μl of DMSO added to each well. The plates were sonicated for approximately 10 seconds to solubilize the precipitated formazan dye. The absorbance of each well was measured using a Titertek Multiskan MC microtiter plate reader at 570 nm with a reference wavelength of 750 nm.

yellow fever virus = details: in words
Spiroplasma citri = assay: Activity Against Spiroplasma citri, Sensitivity Test; type: cell-based; details: in words
Protocol: Frozen broth cultures are diluted to a predetermined titre of 100 color changing units for the test. Organisms are grown in Difco PPLO broth base with added serum, glucose, phenol red, ampicillin, thallium acetate and yeast extract. Incubation is at 32° C. Incubation with varying levels of the test compound in the above medium are performed in well plates and an amount of Spiroplasma citri cells is added that will produce a color change by a fixed time of growth. The lowest concentration of compound that fails to produce a color change or gives a two day delay in color change indicates minimum inhibitory concentration.

[3] = Stability on extended exposure to light; type: physicochemical; details: white powder
mouse L cells [4] = tested on: mouse L cells

**Q.** Which “reversal of the cytotoxicity of the compound of Example 3” value (mouse L cells [1]) does the source give for `NC(=O)c1ncn([C@@H]2O[C@H](COP(=O)(O)O)[C@@H](O)[C@H]2O)c1N` [AICAR, 5-aminoimidazole-4-carboxamide ribonucleotide] here?
**A.** The value was “able to reverse the cytotoxicity of the compound of Example 3”.

**Q.** Which “activity against Streptococcus faecium” value (Streptococcus faecium) does the source give for `Nc1nc(N)c(CCCNc2ccc(C(=O)N[C@@H](CCC(=O)O)C(=O)O)cc2)c(=O)[nH]1` [Example 1, N-[4-[3-(2,4-diamino-1,6-dihydro-6-oxo-5-pyrimidinyl)propylamino]benzoyl]-L-glutamic acid] here?
**A.** Its value is “possess activity against certain bacterial organisms”.

**Q.** What about the “activity against Lactobacillus casei” value (Lactobacillus casei) of the same compound?
**A.** The value was “possess activity against certain bacterial organisms”.

**Q.** What about the “inhibiting the growth of MCF-7 cells” value [2] of the same compound?
**A.** The value was “active in inhibiting the growth of MCF-7 cells”.

**Q.** And the “activity against yellow fever virus” value (yellow fever virus)?
**A.** The value was “some activity against yellow fever virus”.

**Q.** What about the “activity against Spiroplasma citri” value (Spiroplasma citri) of the same compound?
**A.** The value was “activity against the mycoplasma, Spiroplasma citri”.

**Q.** Which results are given for `CN(CCCc1c(N)nc(N)[nH]c1=O)c1ccc(C(=O)N[C@@H](CCC(=O)O)C(=O)O)cc1` [Example 2, N-[4-[3-(2,4-diamino-1,6-dihydro-6-oxo-5-pyrimidinyl)-N-methylpropylamino]benzoyl]-L-glutamic acid]?
**A.** inhibiting the growth of MCF-7 cells [2]: active in inhibiting the growth of MCF-7 cells; activity against Spiroplasma citri (Spiroplasma citri): activity against the mycoplasma, Spiroplasma citri

**Q.** For `Nc1nc(N)c(CCCN(C=O)c2ccc(C(=O)N[C@@H](CCC(=O)O)C(=O)O)cc2)c(=O)[nH]1` [Example 3, N-[4-[3-(2,4-Diamino-1,6-dihydro-6-oxo-5-pyrimidinyl)-N-formylpropylamino]benzoyl]-L-glutamic acid], which “inhibiting the growth of MCF-7 cells” value [2] is on record?
**A.** Its value is “active in inhibiting the growth of MCF-7 cells”.

**Q.** What about the “activity against yellow fever virus” value (yellow fever virus) of the same compound?
**A.** The value was “some activity against yellow fever virus”.

**Q.** And the “activity against Spiroplasma citri” value (Spiroplasma citri)?
**A.** The value was “activity against the mycoplasma, Spiroplasma citri”.

**Q.** For `CN(CCc1c(N)nc(N)[nH]c1=O)c1ccc(C(=O)N[C@@H](CCC(=O)O)C(=O)O)cc1` [Example 5, N-[4-[2-(2,4-diamino-1,6-dihydro-6-oxo-5-pyrimidinyl)ethyl-N-methylamino]benzoyl]-L-glutamic acid], which “appearance upon extended exposure to light” value [3] is on record?
**A.** The value was “became tan upon extended exposure to light”.

**Q.** Which results are given for `Nc1nc2c(c(=O)[nH]1)N(C=O)C(CNc1ccc(C(=O)N[C@@H](CCC(=O)O)C(=O)O)cc1)CN2` (stereo partly shown) [calcium leucovorin]?
**A.** reversal of the cytotoxicity of the compound of Example 1 (mouse L cells [4]): able to reverse the cytotoxicity of the compound of Example 1; reversal of the cytotoxicity of the compound of Example 3 (mouse L cells [4]): able to reverse the cytotoxicity of the compound of Example 3

**Q.** What does the source list for `O=c1[nH]cnc2nc[nH]c12` [hypoxanthine]?
**A.** reversal of the cytotoxicity of the compound of Example 1 (mouse L cells [4]): able to reverse the cytotoxicity of the compound of Example 1; reversal of the cytotoxicity of the compound of Example 3 (mouse L cells [4]): able to reverse the cytotoxicity of the compound of Example 3
